Laboratory results as given in patent US20120115878A1, “SALT(S) OF 7-CYCLOPENTYL-2-(5-PIPERAZIN-1-YL-PYRIDIN-2-YLAMINO)-7H-PYRROLO[2,3-D]PYRIMIDINE-6-CARBOXYLIC ACID DIMETHYLAMIDE AND PROCESSES OF MAKING THEREOF” (priority 2010, published 2012).
Values belong to the compound of their own block, whether it stands above or below them.

How the values were obtained:
[1] = Dynamic Vapor Sorption (DVS) isotherm, 0-80-0% RH cycle; type: physicochemical; conditions: for Change In Mass (%) Desorption / Change In Mass (%) Hysteresis: 0-80-0% RH cycle, Cycle 1
[2] = Physical form characterization (XRPD) after DVS exposure to 80% RH
[3] = Dynamic Vapor Sorption (DVS) isotherm, 0-90-0% RH cycle, two cycles; type: physicochemical
[4] = Physical form characterization (XRPD, DSC, TGA) after DVS exposure to 90% RH; type: physicochemical

- hygroscopicity ([1]; general statement): non-hygroscopicity
- stability ([2]; general statement): good stability
Structure (SMILES): CN(C)C(=O)c1cc2cnc(Nc3ccc(N4CCNCC4)cn3)nc2n1C1CCCC1.O=C(O)CCC(=O)O [non-hydrate form, succinate salt of 7-Cyclopentyl-2-(5-piperazin-1-yl-pyridin-2-ylamino)-7H-pyrrolo[2,3-d]pyrimidine-6-carboxylic acid dimethylamide]

- Change In Mass (%) Desorption ([1]; target RH 0.0%): 0.0434%
- Change In Mass (%) Desorption ([1]; target RH 10.0%): 0.2958%
- Change In Mass (%) Hysteresis ([1]; target RH 10.0%): 0.0871%
- Change In Mass (%) Desorption ([1]; target RH 20.0%): 0.3436%
- Change In Mass (%) Hysteresis ([1]; target RH 20.0%): 0.0708%
- Change In Mass (%) Desorption ([1]; target RH 30.0%): 0.3806%
- Change In Mass (%) Desorption ([1]; target RH 40.0%): 0.4037%
- Change In Mass (%) Hysteresis ([1]; target RH 40.0%): 0.0133%
- Change In Mass (%) Desorption ([1]; target RH 50.0%): 0.4311%
- Change In Mass (%) Hysteresis ([1]; target RH 50.0%): 0.0074%
- Change In Mass (%) Desorption ([1]; target RH 60.0%): 0.4614%
- Change In Mass (%) Hysteresis ([1]; target RH 60.0%): 0.0140%
- Change In Mass (%) Desorption ([1]; target RH 70.0%): 0.4952%
- Change In Mass (%) Hysteresis ([1]; target RH 70.0%): 0.0159%
- Change In Mass (%) Desorption ([1]; target RH 80.0%): 0.5200%
- moisture absorbed ([1]; at 80% RH (0 to 80 to 0% RH)): up to 0.5%
- hygroscopic behavior ([1]; printed 'at 80° C.' (0 to 80 to 0% RH cycle)): nearly non-hygroscopic behavior
- physical form upon exposure to 80% RH ([2]; XRPD after DVS 0-80-0% RH): stability of the physical form
- converted from the non-hydrate form to hydrate form ([2]; at 80% RH): about 0.52%
- moisture absorbed ([3]; at 90% RH in each cycle (0 to 90 to 0% RH)): up to 2%
- hygroscopic behavior ([3]; at high humidity conditions (90% RH)): slight hygroscopic behavior
- physical form upon exposure to 90% RH ([4]; XRPD, DSC, TGA after DVS 0-90-0% RH): change in physical form
- weight loss at endothermic transition ([4]; around 100° C., after exposure to 90% RH): 3%
- converted from the non-hydrate form to hydrate form ([4]; at 90% RH): about 7.35%
Structure (SMILES): CN(C)C(=O)c1cc2cnc(Nc3ccc(N4CCNCC4)cn3)nc2n1C1CCCC1.O=C(O)CCC(=O)O [Compound of Formula (II), 7-Cyclopentyl-N,N-dimethyl-2-(5-(piperazin-1-yl)pyridin-2-ylamino)-7H-pyrrolo[2,3-d]pyrimidine-6-carboxamide succinate]
